Entries after “also recorded” stand apart in the source; their conditions may differ.

One series relates to rats. As to conditions: rat, in vivo.
Series [1] concerns Aflatoxin B1-exposed rats. To be noted: rat, in vivo.
Series [2] concerns Aflatoxin B1-exposed rats. To be noted: rat, in vivo. This is another data set of the same source.
Series [3] relates to Cyp enzymes (Cyp2b2, Cyp1a1, Cyp3a18, Cyp3a9, Cyp2d2, Cyp2c7, Cyp2a3, Cyp2d1, Cyp2c24, Cyp4a2). As to conditions: in vivo.

Regarding Aflatoxin B1, in the series on rats, the food intake result is reported as “comparable food intake”, the “hepatocellular BrdU staining” value was “variable”, the liver histopathology result is “abnormal liver histopathology” and the liver hydroxyproline entry is given as “significant increase”. Further, in the series on rats, the “serum ALT” value was “reduced Serum ALT”, the serum transaminases entry was “trend towards increased serum transaminases”, the tissue hydroxyproline result is given as “mild elevation” and the weight gain result is listed as “decreased weight gain”.

As to Cyp3cide, the “reduction of Aflatoxin B1-induced liver injury” value in series [1] (po, 50 mg/kg) is on record as “did not reduce”.

`c1cn2cc(-c3ccc4cn[nH]c4c3)nc(Nc3ccc(N4CCOCC4)cc3)c2n1` [Entospletinib]: the “mitigating Aflatoxin B1 induced toxicity or injury” value in series [1] (po) is “only mildly efficacious”.

As to `CCOC(=O)[C@H](CCc1ccccc1)N[C@@H](C)C(=O)N1Cc2ccccc2C[C@H]1C(=O)O` [Quinapril], the “beneficial effects on Aflatoxin B1-induced growth impairment or hepatotoxicity” value in series [1] (po) was “did not show beneficial effects”.

`CC(C)CN(C[C@@H](O)[C@H](Cc1ccccc1)NC(=O)O[C@H]1CCOC1)S(=O)(=O)c1ccc(N)cc1` [Amprenavir, [(3S)-oxolan-3-yl] N-[(2S,3R)-4-[(4-aminophenyl)sulfonyl-(2-methylpropyl)amino]-3-hydroxy-1-phenylbutan-2-yl]carbamate]: in series [1], the “final weights (indexed weight)” value is “no pairwise comparisons showed significant differences”; the “liver fibrosis, as assessed by Sirius Red staining” value is “decreased liver fibrosis”; the liver hydroxyproline content result is “trend towards decreased liver hydroxyproline content”; the “liver hydroxyproline levels (a measure of liver fibrosis)” value is “trends towards decreased hydroxyproline”. In addition, in series [1], the “overall Aflatoxin B1 mitigation activity (liver histopathology: hepatocellular BrdU staining, serum transaminases, hydroxyproline levels)” value was “excellent mitigation activity; also recorded: most efficacious drug”; the “serum ALT levels” value is “significantly lower”; the serum transaminases entry is “lower serum transaminases”; the survival entry is “improved survival”. Further, in series [2], the “effect on Aflatoxin B1-induced reduction in weight gain” value was “no effect”, the liver hydroxyproline entry is “trends towards reducing”, the “morphometric measurement of liver fibrosis” value is recorded as “trends towards reducing” and the “overall effects on Aflatoxin B1-induced liver injury” value is “significant or trends towards significant beneficial effects”. The “serum ALT” value in series [2] was “reduced serum ALT”. Besides, the “expression of Cyp enzymes in rat livers (transcriptomics)” value in series [3] is reported as “greatly upregulated”.
